Data published in publication PMC12369603, “Functional characterization of antennae-enriched chemosensory protein 4 in emerald ash borer, Agrilus planipennis” (PeerJ, 2025).
Several values for one entry are separate records, joined by “and”; a condition that tells them apart may be missing. Equal values may be shown once. Read-outs that look alike come from different tables or passages of the source.

Key:
[1] = molecular target: T1, recombinant AplaCSP4 (Agrilus planipennis chemosensory protein 4) (Agrilus planipennis, UniProt A0A1W4XLL0); assay: biochemical; format: binding; conditions: for Kd: read-out: K D ±SE (dissociation constant); for binding to AplaCSP4 (in words): discussion of fluorescence competitive binding results; for Competitive binding capability(%) / activity at 2 µM / activity at 4 µM / activity at 6 µM / activity at 8 µM / activity at 10 µM / activity at 12 µM: three replicate columns, 100 at 0 μM
T1 sequence (A0A1W4XLL0 entry or part of it): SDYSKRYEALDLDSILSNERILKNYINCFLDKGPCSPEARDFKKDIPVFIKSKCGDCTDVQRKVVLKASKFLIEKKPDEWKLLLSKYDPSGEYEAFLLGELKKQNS
Method: Specifically, the binding affinities of AplaCSP4 for 43 volatile organic compounds were determined using F-380 fluorescence spectrophotometer (Tianjin, China) with a 10 nm slits and a 1 cm light path. These 43 substances are common green leaf volatiles, among which 16 volatiles originate from the ash tree. […]

[2] = molecular target: T1, recombinant AplaCSP4 (Agrilus planipennis chemosensory protein 4); assay: Binding of fluorescent probe 1-NPN to AplaCSP4 (titration); conditions: 2 µM protein in 50 mM Tris–HCl pH 7.4 titrated with 1-NPN 2-16 µM; read-out: binding affinity constant (KD) between 1-NPN and AplaCSP4
Method: Fluorescence competitive binding assays were conducted according to the method described by [Wang et al. (2021)]. Specifically, the binding affinities of AplaCSP4 for 43 volatile organic compounds were determined using F-380 fluorescence spectrophotometer (Tianjin, China) with a 10 nm slits and a 1 cm light path. These 43 substances are common green leaf volatiles, among which 16 volatiles originate from the ash tree. As the fluorescent probe, N-phenyl-1-naphthylamine (1-NPN) was excited at the wavelength of 337 nm, and emission spectra were recorded between 390 and 530 nm. […]

[3] = AplaCSP4 and 1-NPN each 2 µM, 50 mM Tris–HCl pH 7.4, KD = IC50/(1+[1-NPN]/K1-NPN), mean of three experiments
[4] = AplaCSP4 and 1-NPN each 2 µM, ligands with minimal binding single experiment, read-out: K D ±SE, “–” = no binding (IC50 >16 μM, KD not calculated)
[5] = ligand concentration 2 μM, 2 µM
[6] = ligand concentration 4 μM, 4 µM
[7] = ligand concentration 6 μM, 6 µM
[8] = ligand concentration 8 μM, 8 µM
[9] = ligand concentration 10 μM, 10 µM
[10] = ligand concentration 12 μM, 12 µM
[11] = pH 7.4, read-out: Competitive binding capability(%), ligand concentration 2 μM
[12] = pH 7.4, read-out: Competitive binding capability(%), ligand concentration 4 μM
[13] = pH 7.4, read-out: Competitive binding capability(%), ligand concentration 6 μM
[14] = pH 7.4, read-out: Competitive binding capability(%), ligand concentration 8 μM
[15] = pH 7.4, read-out: Competitive binding capability(%), ligand concentration 10 μM
[16] = pH 7.4, read-out: Competitive binding capability(%), ligand concentration 12 μM
[17] = pH 7.4, ligand concentration 2 μM, read-out: Competitive binding capability(%)
[18] = pH 7.4, ligand concentration 4 μM, read-out: Competitive binding capability(%)
[19] = pH 7.4, ligand concentration 6 μM, read-out: Competitive binding capability(%)
[20] = pH 7.4, ligand concentration 8 μM, read-out: Competitive binding capability(%)
[21] = pH 7.4, ligand concentration 10 μM, read-out: Competitive binding capability(%)
[22] = pH 7.4, ligand concentration 12 μM, read-out: Competitive binding capability(%)

## CC(C)=CCCC(C)=CC=O (mixture of isomers) [Citral]
[1]
  IC50: > 16 µM

## CC(=O)O[C@@H]1C[C@H]2CC[C@]1(C)C2(C)C (racemic) [Isobornyl acetate]
[1]
  IC50: > 16 µM

## C=C(C)C1CC=C(C)CC1 (single isomer, unassigned; (+)) [(+)-Limonene]
[1]; [3]
  Kd: 11.3 ± 0.69 µM
[1]
  binding to AplaCSP4 (in words): binding capabilities
[1]; ligand concentration 2 μM
  Competitive binding capability(%): 97.2535% and 97.4709% and 95.8953%
[1]; ligand concentration 4 μM
  Competitive binding capability(%): 90.8935% and 90.3604% and 88.2267%
[1]; ligand concentration 6 μM
  Competitive binding capability(%): 83.0381% and 84.401% and 80.748%
[1]; ligand concentration 8 μM
  Competitive binding capability(%): 77.7418% and 78.3215% and 71.3561%
[1]; ligand concentration 10 μM
  Competitive binding capability(%): 70.6734% and 71.72% and 63.3296%
[1]; ligand concentration 12 μM
  Competitive binding capability(%): 65.4243% and 64.4472% and 56.5332%

## CC12CCC(CC1)C(C)(C)O2 [1,8-Cineole]
[1]
  IC50: > 16 µM

## CCCCCCO [1-Hexanol]
[1]
  IC50: > 16 µM

## c1ccc(Nc2cccc3ccccc23)cc1 [1-NPN, N-phenyl-1-naphthylamine]
[2]
  Kd: 9.36 µM

## CCCCCCCCO [1-Octanol]
[1]; [4]
  IC50: > 16 µM

## C=CC(O)CCCCC (stereo not drawn) [1-Octen-3-ol]
[1]
  IC50: > 16 µM

## CCCCC(C)=O [2-Hexanone]
[1]
  IC50: > 16 µM

## CCc1ccc(C(C)=O)cc1 [4′-Ethylacetophenone]
[1]
  IC50: > 16 µM

## C=C1CCC2CC1C2(C)C (stereo not drawn) [(-)-β-Pinene]
[1]; [4]
  IC50: > 16 µM

## C=C(C)[C@@H]1CC=C(C)C(=O)C1 [(R)-(-)-Carvone]
[1]
  IC50: > 16 µM

## O=Cc1ccccc1 [Benzaldehyde]
[1]
  IC50: > 16 µM

## CCCCCCCCCC=O [Decanal]
[1]; [4]
  IC50: > 16 µM

## CCCCCCCCCC [Decane]
[1]; [5]
  Competitive binding capability(%): 60.8138% and 70.0208%
[1]; [6]
  Competitive binding capability(%): 45.6655% and 49.8433%
[1]; [7]
  Competitive binding capability(%): 42.3979% and 46.6766%
[1]; [8]
  Competitive binding capability(%): 41.2683% and 43.4013%
[1]; [9]
  Competitive binding capability(%): 39.2004% and 42.0377%
[1]; [10]
  Competitive binding capability(%): 38.5773% and 39.0548%
[1]; [11]
  activity at 2 µM: 57.1%
[1]; [12]
  activity at 4 µM: 45.8%
[1]; [13]
  activity at 6 µM: 42.4%
[1]; [14]
  activity at 8 µM: 40.4%
[1]; [15]
  activity at 10 µM: 39.9%
[1]; [16]
  activity at 12 µM: 38.2%
[1]
  Kd: 2.87 ± 0.44 µM

## CCCCCCCCCCCC [Dodecane]
[1]
  binding to AplaCSP4 (in words): binding capabilities
  Kd: 1.93 ± 0.09 µM
[1]; [5]
  Competitive binding capability(%): 62.371% and 59.0946%
[1]; [6]
  Competitive binding capability(%): 40.5144% and 36.3519%
[1]; [7]
  Competitive binding capability(%): 30.0968% and 29.949%
[1]; [8]
  Competitive binding capability(%): 26.7121% and 28.4784%
[1]; [9]
  Competitive binding capability(%): 26.2641% and 27.4122%
[1]; [10]
  Competitive binding capability(%): 25.5826% and 26.3545%
[1]; [11]
  activity at 2 µM: 63.1%
[1]; [12]
  activity at 4 µM: 37.5%
[1]; [13]
  activity at 6 µM: 29.7%
[1]; [14]
  activity at 8 µM: 27.4%
[1]; [15]
  activity at 10 µM: 26.7%
[1]; [16]
  activity at 12 µM: 25.8%

## C=CCc1ccc(O)c(OC)c1 [Eugenol]
[1]
  IC50: > 16 µM

## CCCCCC=O [Hexanal]
[1]
  IC50: > 16 µM

## CCCCCCOC(C)=O [Hexyl acetate]
[1]; [4]
  IC50: > 16 µM

## CCCCCCOC(=O)CCC [Hexyl butyrate]
[1]; [5]
  Competitive binding capability(%): 93.4207% and 91.053%
[1]; [6]
  Competitive binding capability(%): 84.76% and 83.3555%
[1]; [7]
  Competitive binding capability(%): 77.5021% and 75.6266%
[1]; [8]
  Competitive binding capability(%): 71.3681% and 69.2316%
[1]; [9]
  Competitive binding capability(%): 65.618% and 62.7841%
[1]; [10]
  Competitive binding capability(%): 61.0388% and 57.6483%
[1]; [17]
  activity at 2 µM: 93.1%
[1]; [18]
  activity at 4 µM: 85.4%
[1]; [19]
  activity at 6 µM: 78.8%
[1]; [20]
  activity at 8 µM: 72.2%
[1]; [21]
  activity at 10 µM: 65.8%
[1]; [22]
  activity at 12 µM: 61.7%
[1]
  Kd: 11.5 ± 0.42 µM

## C=CC(C)(O)CCC=C(C)C (stereo not drawn) [Linalool]
[1]
  IC50: > 16 µM

## COC(=O)c1ccccc1 [Methyl benzoate]
[1]
  IC50: > 16 µM

## COC(=O)c1ccccc1O [Methyl salicylate]
[1]
  IC50: > 16 µM

## C=CC(=C)CCC=C(C)C [Myrcene]
[1]
  binding to AplaCSP4 (in words): binding capabilities
  Kd: 9.9 ± 0.34 µM
[1]; [5]
  Competitive binding capability(%): 93.6207% and 95.326%
[1]; [6]
  Competitive binding capability(%): 85.4868% and 89.2675%
[1]; [7]
  Competitive binding capability(%): 76.2875% and 80.8277%
[1]; [8]
  Competitive binding capability(%): 67.6403% and 72.2022%
[1]; [9]
  Competitive binding capability(%): 61.2276% and 66.6056%
[1]; [10]
  Competitive binding capability(%): 55.297% and 60.7518%
[1]; [17]
  activity at 2 µM: 93.4%
[1]; [18]
  activity at 4 µM: 87%
[1]; [19]
  activity at 6 µM: 75.3%
[1]; [20]
  activity at 8 µM: 66.9%
[1]; [21]
  activity at 10 µM: 61.1%
[1]; [22]
  activity at 12 µM: 54.9%

## CCCCCCCCC=O [Nonanal]
[1]; [4]
  IC50: > 16 µM

## C=CC(C)=CCC=C(C)C [Ocimene]
[1]; [3]
  Kd: 10.4 ± 1.11 µM
[1]
  binding to AplaCSP4 (in words): binding capabilities
[1]; ligand concentration 2 μM
  Competitive binding capability(%): 93.4067% and 90.0634% and 92.7212%
[1]; ligand concentration 4 μM
  Competitive binding capability(%): 88.4911% and 81.8854% and 85.2152%
[1]; ligand concentration 6 μM
  Competitive binding capability(%): 82.5386% and 75.7215% and 76.2043%
[1]; ligand concentration 8 μM
  Competitive binding capability(%): 75.2984% and 68.1994% and 63.8599%
[1]; ligand concentration 10 μM
  Competitive binding capability(%): 69.6898% and 60.3453% and 57.9099%
[1]; ligand concentration 12 μM
  Competitive binding capability(%): 63.4481% and 55.0655% and 52.0519%

## CCCCCCCC=O [Octanal]
[1]; [4]
  IC50: > 16 µM

## N#CCc1ccccc1 [Phenylacetonitrile]
[1]
  IC50: > 16 µM

## CCCCCCCCCCCCCC [Tetradecane]
[1]; [4]
  IC50: > 16 µM

## CCCCC=O [Valeraldehyde]
[1]; [4]
  IC50: > 16 µM

## CC/C=C\CCO [cis-3-Hexen-1-ol]
[1]
  IC50: > 16 µM

## CC/C=C\CCOC(C)=O [cis-3-Hexenyl acetate]
[1]; [4]
  IC50: > 16 µM

## CC/C=C\CCOC(=O)c1ccccc1 [cis-3-Hexenyl benzoate]
[1]; [5]
  Competitive binding capability(%): 79.0652% and 72.7217%
[1]; [6]
  Competitive binding capability(%): 62.6633% and 59.3339%
[1]; [7]
  Competitive binding capability(%): 52.3441% and 49.0753%
[1]; [8]
  Competitive binding capability(%): 45.5407% and 42.369%
[1]; [9]
  Competitive binding capability(%): 38.572% and 36.9717%
[1]; [10]
  Competitive binding capability(%): 34.5851% and 32.8537%
[1]; [17]
  activity at 2 µM: 76.1%
[1]; [18]
  activity at 4 µM: 61.8%
[1]; [19]
  activity at 6 µM: 51.7%
[1]; [20]
  activity at 8 µM: 44.5%
[1]; [21]
  activity at 10 µM: 39.2%
[1]; [22]
  activity at 12 µM: 35%
[1]
  Kd: 4.29 ± 0.18 µM

## CC/C=C\CCOC(=O)C(C)C [cis-3-Hexenyl isobutyrate]
[1]; [4]
  IC50: > 16 µM

## CC/C=C\CCOC(=O)CC(C)C [cis-3-Hexenyl isovalerate]
[1]; [4]
  IC50: > 16 µM

## CCCCCCCC [n-Octane]
[1]; [5]
  Competitive binding capability(%): 86.2111% and 85.0437%
[1]; [6]
  Competitive binding capability(%): 71.3083% and 70.0543%
[1]; [7]
  Competitive binding capability(%): 57.8901% and 54.2819%
[1]; [8]
  Competitive binding capability(%): 46.7227% and 42.7241%
[1]; [9]
  Competitive binding capability(%): 38.967% and 35.7057%
[1]; [10]
  Competitive binding capability(%): 32.7961% and 31.347%
[1]; [11]
  activity at 2 µM: 86%
[1]; [12]
  activity at 4 µM: 67.9%
[1]; [13]
  activity at 6 µM: 56.4%
[1]; [14]
  activity at 8 µM: 45%
[1]; [15]
  activity at 10 µM: 38.2%
[1]; [16]
  activity at 12 µM: 31.4%
[1]
  Kd: 4.83 ± 0.11 µM

## CCCC/C=C/C=O [trans-2-Heptenal]
[1]; [4]
  IC50: > 16 µM

## CCC/C=C/C=O [trans-2-Hexenal]
[1]
  IC50: > 16 µM

## CCC/C=C/COC(C)=O [trans-2-Hexenyl acetate]
[1]; [4]
  IC50: > 16 µM

## C=C1CC/C=C(\C)CC[C@@H]2[C@@H]1CC2(C)C [β-Caryophyllene]
[1]
  IC50: > 16 µM

## (±)-Citronellal
[1]; [4]
  IC50: > 16 µM
